# Laboratory results taken from patent publication US20230131025A1, “QUINOLYL PHOSPHINE OXIDE COMPOUND, AND COMPOSITION AND APPLICATION THEREOF” (Betta Pharmaceuticals Co., Ltd., priority 2020, published 2023).
# Assays:
# [1] = biological target: Ba/F3-Δ19del/T790M/C797S (Homo sapiens, UniProt P00533, T790M/C797S, cells depend on it, form not given); experiment: Cell proliferation experiment (CellTiter Glo, 72 hours); format: cell-based; details: read-out: Ba/F3/EGFR Δ19del/T790M/C797S IC50
# Protocol: (§1) Experiment 2 Cell Proliferation Experiment
# (§2) Suspension cells: Ba/F3 cells with stable overexpression of Δ19del/T790M/C797S mutant gene, named Ba/F3-Δ19del/T790M/C797S; Ba/F3 cells with overexpression of EGFR WT, named Ba/F3 EGFR WT.
# (§3) RPMI 1640 with 10% FBS and 1% Penicillin-Streptomycin, or DMEM with 10% FBS and 1% Penicillin-Streptomycin.
# (§4) a) Diluting compounds being tested (20 mM stock solutions), as an initial concentration, to 10 mM with 100% DMSO, followed by diluting compounds serially in a 3-fold gradient such that each compound is diluted into 12 concentrations (Cat #P-05525, Labcyte).
# (§5) b) Diluting the above compound solutions for 100-fold with culture medium to prepare 10-fold working solution.
# (§6) b) Seeding cells into 96-well cell culture plate at a density of 2000 or 3000 cells/well, with 135 μL/well.
# (§7) a) Adding the compound prepared in step 2 to the cell plate at 15 μL per well, resulting in a final maximum concentration of 10000 nM or 1111 nM. The compounds is diluted serially in a 3-fold gradient such that each compound is diluted into 9 concentrations, wherein the final concentration of DMSO is 0.1%. Blank control wells are added with medium (0.1% DMSO).
# (§8) b) Re-incubating the cells in an incubator for 72 hours. 5. Detection
# (§9) a) Adding 50 μL of CTG reagent (CellTiter Glo kit, promega, Cat #G7573) to the 96-well cell culture plate.
# (§10) b) Shaking the plate for 2 minutes and reacting at room temperature for 10 minutes.
# (§11) c) Reading the luminescence signal value (Lum) using PerkinElmer reader.
# (§12) The cell survival inhibition rate of each well was calculated. The data was analyzed by GraphPad Prism 6.0 software. The dose-response curve was obtained by fitting the data with a nonlinear regression equation. The IC50 of each compound was calculated as follows:
# (§13) Cell survival inhibition rate (%)=(1−(Lumcompound tested−Lummedium control)/(Lumcell control−Lummedium control))×100%
# (§14) Y=Min+(Max−Min)/(1+10^((Log IC50−X)*Slope));
# (§15) X: logarithm of compound concentration. Y: cell survival inhibition rate.
# [2] = biological target: Ba/F3 EGFR WT (Homo sapiens, UniProt P00533); experiment: as above; format: cell-based; details: read-out: BaF3 EGFR WT IC50
# Protocol: as §1, §2, §3, §4, §5, §6, §7, §8, §9, §10, §11, §12, §13, §14, §15
# [3] = biological target: EGFR WT (Homo sapiens, UniProt P00533); experiment: Kinase inhibition assay (mobility shift); format: biochemical
# Protocol: (§16) Experiment 1 Kinase Inhibition Assay Mobility shift assays were performed to determine inhibitory activity of compounds against EGFR^Δ19del/T790M/C797S, EGFR WT and IGF1R kinases. The enzymatic reaction scheme is as follows:
# (§17) 1. Preparing 1*Kinase Buffer as follows:
# (§18) 2. Preparing compound concentration gradient: the initial concentration of the compound tested in the assay was 3,000 nM or 100 nM, which is then diluted to be 100-fold final concentration in 100% DMSO in a 384-source plate. Compounds in 10 concentrations were diluted in a 3-fold gradient with Precision. 250 nL of compound in 100-fold final concentration was transferred to OptiPlate-384F plate by using a dispenser named Echo 550.
# (§19) 3. Preparing kinase solution at 2.5-fold the final concentration with 1×kinase buffer.
# (§20) 4. Adding 10 μL of kinase solution at 2.5-fold the final concentration to compound wells and positive control wells respectively; and adding 10 μL of 1×kinase buffer to negative control wells.
# (§21) 5. Centrifuging the wells at 1,000 rpm for 30 seconds, mixing the reaction plate well by shaking and incubating it at room temperature for 10 minutes.
# (§22) 6. Preparing a mixed solution of ATP and kinase substrate at 5-fold/3-fold the final concentration with 1×Kinase buffer, respectively.
# (§23) 7. Initiating the reaction by adding 15 μL of the mixed solution of ATP and kinase substrate at 5-fold/3-fold the final concentration.
# (§24) 8. Centrifuging the 384-well plate at 1,000 rpm for 30 seconds, mixing the reaction plate well by shaking and incubating it at room temperature for a corresponding time.
# (§25) 9. Adding 30 μL of assay stop solution to stop the kinase reaction, and centrifuging the plate at 1,000 rpm for 30 seconds and mixing it well by shaking.
# (§26) 10. Reading the conversion rate with Caliper EZ Reader.
# (§27) [formula] • wherein, “Conversion % sample” is the conversion rate reading of the sample;
# (§28) “Conversion %_min” is the mean value of the negative control wells, representing the conversion rate readings of the well without enzymatic activity; “Conversion %_max” is the mean value of the positive control wells, representing the conversion rate readings of the wells without compound inhibition. • Dose-response curve is plotted with the logarithmic concentration on the X-axis and percent inhibition on the Y-axis. The fitting of the dose-response curve is made with the module “log(inhibitor) vs. response—Variable slope” of the analysis software GraphPad Prism 5, so that the IC50 value of each compound on enzymatic activity is obtained. • The calculation formula is: Y=Bottom+(Top−Bottom)/(1+10^((Log IC50−X)*HillSlope)).
# [4] = biological target: EGFR Δ19del/T790M/C797S (Homo sapiens, UniProt P00533, T790M/C797S, form not given); experiment: Kinase inhibition assay (mobility shift); format: biochemical
# Protocol: as §16, §17, §18, §19, §20, §21, §22, §23, §24, §25, §26, §27, §28
# [5] = biological target: IGF1R (Homo sapiens, UniProt P08069); experiment: Kinase inhibition assay (mobility shift); format: biochemical
# Protocol: as §16, §17, §18, §19, §20, §21, §22, §23, §24, §25, §26, §27, §28
# [6] = test system: human epidermal cancer cells A431 carrying EGFR WT; experiment: Cell proliferation experiment (CellTiter Glo, 72 hours); format: cell-based; details: Homo sapiens, A-431
# Protocol: as §1
# Adherent cells: human epidermal cancer cells A431 carrying EGFR WT.
# as §3, §4, §5, §6, §7, §8, §9, §10, §11, §12, §13, §14, §15
# Sequence of Ba/F3 EGFR WT (P00533 whole entry, change not shown): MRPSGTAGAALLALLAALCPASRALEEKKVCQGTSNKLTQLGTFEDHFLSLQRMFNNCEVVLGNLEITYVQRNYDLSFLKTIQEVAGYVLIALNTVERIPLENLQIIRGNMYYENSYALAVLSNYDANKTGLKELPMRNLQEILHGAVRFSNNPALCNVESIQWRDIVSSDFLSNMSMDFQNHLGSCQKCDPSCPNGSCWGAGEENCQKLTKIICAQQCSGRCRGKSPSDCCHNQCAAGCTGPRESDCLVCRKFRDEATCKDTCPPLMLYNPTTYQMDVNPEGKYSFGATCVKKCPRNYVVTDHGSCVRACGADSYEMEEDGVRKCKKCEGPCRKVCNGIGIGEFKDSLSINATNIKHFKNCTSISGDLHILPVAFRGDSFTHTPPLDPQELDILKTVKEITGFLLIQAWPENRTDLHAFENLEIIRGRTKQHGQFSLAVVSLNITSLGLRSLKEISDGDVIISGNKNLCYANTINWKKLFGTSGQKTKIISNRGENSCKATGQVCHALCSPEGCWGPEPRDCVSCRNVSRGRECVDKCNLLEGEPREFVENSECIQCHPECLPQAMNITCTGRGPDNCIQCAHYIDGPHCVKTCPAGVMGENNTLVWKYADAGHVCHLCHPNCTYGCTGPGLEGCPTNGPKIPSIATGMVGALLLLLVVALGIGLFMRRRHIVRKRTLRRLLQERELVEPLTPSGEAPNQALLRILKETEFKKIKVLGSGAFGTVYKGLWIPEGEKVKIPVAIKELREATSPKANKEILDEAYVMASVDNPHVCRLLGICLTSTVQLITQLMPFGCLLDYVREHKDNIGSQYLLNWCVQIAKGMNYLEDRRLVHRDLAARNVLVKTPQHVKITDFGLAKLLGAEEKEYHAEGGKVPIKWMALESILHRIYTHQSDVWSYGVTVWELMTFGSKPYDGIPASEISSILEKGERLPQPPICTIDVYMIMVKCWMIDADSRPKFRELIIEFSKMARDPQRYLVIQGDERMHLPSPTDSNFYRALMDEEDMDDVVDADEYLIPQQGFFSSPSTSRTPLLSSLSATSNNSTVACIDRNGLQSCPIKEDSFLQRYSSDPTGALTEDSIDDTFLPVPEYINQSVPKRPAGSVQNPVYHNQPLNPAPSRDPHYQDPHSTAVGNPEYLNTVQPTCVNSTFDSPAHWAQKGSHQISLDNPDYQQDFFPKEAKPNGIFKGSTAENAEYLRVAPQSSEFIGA
# Sequence of IGF1R (P08069 31-1367, species assumed): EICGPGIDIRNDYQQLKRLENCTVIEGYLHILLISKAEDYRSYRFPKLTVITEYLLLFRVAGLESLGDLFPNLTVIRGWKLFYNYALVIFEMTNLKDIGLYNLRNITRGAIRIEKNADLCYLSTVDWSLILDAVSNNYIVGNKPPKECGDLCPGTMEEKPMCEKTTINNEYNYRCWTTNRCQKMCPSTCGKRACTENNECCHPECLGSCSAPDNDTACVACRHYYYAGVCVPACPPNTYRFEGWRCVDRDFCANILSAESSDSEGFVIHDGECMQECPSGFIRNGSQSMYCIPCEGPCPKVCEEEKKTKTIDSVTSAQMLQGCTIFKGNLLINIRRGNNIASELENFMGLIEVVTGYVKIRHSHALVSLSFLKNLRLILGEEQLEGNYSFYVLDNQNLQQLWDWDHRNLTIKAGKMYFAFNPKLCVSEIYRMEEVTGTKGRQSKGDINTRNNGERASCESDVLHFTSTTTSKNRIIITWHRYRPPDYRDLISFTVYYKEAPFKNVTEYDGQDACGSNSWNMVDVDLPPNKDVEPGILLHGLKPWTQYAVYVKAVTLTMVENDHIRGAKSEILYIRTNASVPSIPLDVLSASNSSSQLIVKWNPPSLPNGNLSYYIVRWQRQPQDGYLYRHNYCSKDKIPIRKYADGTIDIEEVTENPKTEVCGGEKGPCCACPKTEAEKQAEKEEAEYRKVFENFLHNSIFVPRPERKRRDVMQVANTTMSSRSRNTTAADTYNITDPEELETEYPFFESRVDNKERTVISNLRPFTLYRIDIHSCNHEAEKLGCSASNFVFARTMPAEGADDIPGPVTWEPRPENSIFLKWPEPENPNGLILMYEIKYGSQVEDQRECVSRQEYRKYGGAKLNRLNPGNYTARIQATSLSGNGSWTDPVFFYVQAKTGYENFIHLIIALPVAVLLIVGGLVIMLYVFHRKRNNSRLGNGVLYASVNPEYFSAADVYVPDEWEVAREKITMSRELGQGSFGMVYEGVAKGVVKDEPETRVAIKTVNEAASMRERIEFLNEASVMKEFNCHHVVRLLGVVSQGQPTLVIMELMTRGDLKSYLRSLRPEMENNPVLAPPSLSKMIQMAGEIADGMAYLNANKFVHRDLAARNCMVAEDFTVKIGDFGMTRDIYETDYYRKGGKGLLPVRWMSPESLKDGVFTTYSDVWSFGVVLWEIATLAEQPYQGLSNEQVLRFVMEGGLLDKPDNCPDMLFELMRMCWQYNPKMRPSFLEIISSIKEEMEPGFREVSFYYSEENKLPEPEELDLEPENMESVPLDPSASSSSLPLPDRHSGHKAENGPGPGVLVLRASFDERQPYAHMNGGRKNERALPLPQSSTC
# Sequence of EGFR WT (P00533 25-1210): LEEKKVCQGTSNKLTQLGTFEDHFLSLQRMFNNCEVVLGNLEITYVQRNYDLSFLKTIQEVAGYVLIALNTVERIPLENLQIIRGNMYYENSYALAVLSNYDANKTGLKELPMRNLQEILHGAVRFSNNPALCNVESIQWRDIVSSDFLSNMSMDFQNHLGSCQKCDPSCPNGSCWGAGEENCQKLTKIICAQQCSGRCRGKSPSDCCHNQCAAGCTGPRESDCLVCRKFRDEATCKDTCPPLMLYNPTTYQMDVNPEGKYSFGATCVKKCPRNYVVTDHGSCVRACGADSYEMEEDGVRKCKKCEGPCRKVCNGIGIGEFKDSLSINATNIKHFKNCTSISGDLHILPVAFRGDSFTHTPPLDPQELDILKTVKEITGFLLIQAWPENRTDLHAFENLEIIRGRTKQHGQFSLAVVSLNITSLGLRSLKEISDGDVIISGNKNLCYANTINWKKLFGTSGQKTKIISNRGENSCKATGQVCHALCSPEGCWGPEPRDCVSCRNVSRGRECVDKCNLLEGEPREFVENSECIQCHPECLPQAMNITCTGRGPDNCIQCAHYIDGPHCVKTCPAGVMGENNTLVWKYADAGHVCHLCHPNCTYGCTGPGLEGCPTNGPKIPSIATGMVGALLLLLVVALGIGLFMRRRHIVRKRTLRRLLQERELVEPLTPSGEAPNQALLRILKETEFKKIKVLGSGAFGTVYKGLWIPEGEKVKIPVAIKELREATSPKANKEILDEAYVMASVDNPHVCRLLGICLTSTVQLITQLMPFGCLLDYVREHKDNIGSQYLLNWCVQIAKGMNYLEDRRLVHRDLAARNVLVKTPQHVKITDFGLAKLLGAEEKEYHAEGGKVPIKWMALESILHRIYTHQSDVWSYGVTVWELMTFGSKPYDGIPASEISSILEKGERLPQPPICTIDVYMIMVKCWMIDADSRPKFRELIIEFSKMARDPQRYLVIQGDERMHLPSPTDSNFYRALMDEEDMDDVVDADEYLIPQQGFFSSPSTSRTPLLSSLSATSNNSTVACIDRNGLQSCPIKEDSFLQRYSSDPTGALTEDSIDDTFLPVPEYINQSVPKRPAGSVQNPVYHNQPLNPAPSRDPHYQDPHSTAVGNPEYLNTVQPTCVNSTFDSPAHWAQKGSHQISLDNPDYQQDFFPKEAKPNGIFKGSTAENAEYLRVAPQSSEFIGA
# Sequence of Ba/F3-Δ19del/T790M/C797S (P00533 with tags, fused parts or gaps DEL746-750/T790M/C797S, form open): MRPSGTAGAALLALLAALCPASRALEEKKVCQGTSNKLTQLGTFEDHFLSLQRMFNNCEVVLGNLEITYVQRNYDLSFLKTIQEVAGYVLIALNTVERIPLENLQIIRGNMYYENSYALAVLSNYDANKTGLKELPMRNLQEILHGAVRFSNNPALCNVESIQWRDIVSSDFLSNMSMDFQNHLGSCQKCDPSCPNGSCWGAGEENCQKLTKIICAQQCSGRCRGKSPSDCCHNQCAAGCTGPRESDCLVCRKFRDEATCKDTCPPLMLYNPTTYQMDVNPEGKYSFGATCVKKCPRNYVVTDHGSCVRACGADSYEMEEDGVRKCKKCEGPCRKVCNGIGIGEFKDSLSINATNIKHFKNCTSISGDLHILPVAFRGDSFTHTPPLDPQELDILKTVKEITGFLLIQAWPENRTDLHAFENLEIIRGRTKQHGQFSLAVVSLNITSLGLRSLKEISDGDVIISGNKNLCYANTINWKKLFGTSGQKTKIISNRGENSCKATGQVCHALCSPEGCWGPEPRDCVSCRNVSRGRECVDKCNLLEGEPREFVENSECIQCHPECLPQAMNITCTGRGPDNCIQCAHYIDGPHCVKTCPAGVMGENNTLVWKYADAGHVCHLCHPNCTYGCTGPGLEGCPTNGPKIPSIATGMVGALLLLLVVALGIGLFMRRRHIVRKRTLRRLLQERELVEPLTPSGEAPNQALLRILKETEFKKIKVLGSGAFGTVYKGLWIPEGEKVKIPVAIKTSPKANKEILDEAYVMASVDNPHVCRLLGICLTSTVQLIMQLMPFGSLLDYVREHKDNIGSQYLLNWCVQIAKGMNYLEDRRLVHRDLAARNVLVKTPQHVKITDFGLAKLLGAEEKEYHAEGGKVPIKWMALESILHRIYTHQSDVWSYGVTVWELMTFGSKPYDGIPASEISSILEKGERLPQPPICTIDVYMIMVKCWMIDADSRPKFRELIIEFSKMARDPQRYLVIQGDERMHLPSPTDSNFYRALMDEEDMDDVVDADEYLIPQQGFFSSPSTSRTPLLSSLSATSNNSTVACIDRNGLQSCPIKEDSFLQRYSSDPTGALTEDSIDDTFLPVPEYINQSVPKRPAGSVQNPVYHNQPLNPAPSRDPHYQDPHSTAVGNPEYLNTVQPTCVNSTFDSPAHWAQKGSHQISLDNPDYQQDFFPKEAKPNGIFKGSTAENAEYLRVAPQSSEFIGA
SMILES,GI50 [1],GI50 [2],IC50 [3],IC50 [4],IC50 [5],IC50 [6]
"CCc1cc(Nc2ncc(Br)c(Nc3ccc4nc(C5CC5)ccc4c3P(C)(C)=O)n2)c(OC)cc1N1CCN(C)CC1 [Compound J-011, (6-((5-Bromo-2-((5-ethyl-2-methoxy-4-(4-methylpiperazin-1-yl)phenyl)amino)pyrimidin-4-yl)amino)-2-cyclopropylquinolin-5-yl)dimethylphosphine oxide]",4.7 nM,190 nM,45.8 nM,0.7 nM,146 nM,1160 nM
"COc1cc(Nc2ncc(Br)c(Nc3ccc4nc(C5CC5)ccc4c3P(C)(C)=O)n2)cc(C)c1N1CCC(N2CCN(C)CC2)CC1 [Compound J-029, (6-((5-Bromo-2-((3-methoxy-5-methyl-4-(4-(4-methylpiperazin-1-yl)piperidin-1-yl)phenyl)amino)pyrimidin-4-yl)amino)-2-cyclopropylquinolin-5-yl)dimethylphosphine oxide]",12.1 nM,98.5 nM,41.3 nM,0.22 nM,58.1 nM,204 nM
"COc1cc(Nc2ncc(Br)c(Nc3ccc4nc(C5CC5)ccc4c3P(C)(C)=O)n2)c(C)cc1N1CCC(N2CCN(C)CC2)CC1 [Compound J-023, (6-((5-Bromo-2-((5-methoxy-2-methyl-4-(4-(4-methylpiperazin-1-yl)piperidin-J-yl)phenyl)amino)pyrimidin-4-yl)amino)-2-cyclopropylquinolin-5-yl)dimethylphosphine oxide]",6.4 nM,117 nM,17 nM,0.28 nM,27 nM,877 nM
"COc1cc(N2CCN(C)CC2)c(C)cc1Nc1ncc(Br)c(Nc2ccc3nc(C4CC4)ccc3c2P(C)(C)=O)n1 [Compound J-010, (6-((5-Bromo-2-((2-methoxy-5-methyl-4-(4-methylpiperazin-1-yl)phenyl)amino)pyrimidin-4-yl)amino)-2-cyclopropylquinolin-5-yl)dimethylphosphine oxide]",11.5 nM,187 nM,79 nM,0.2 nM,142 nM,969 nM
"CCc1cc(Nc2ncc(Br)c(Nc3ccc4nc(C5CC5)ccc4c3P(C)(C)=O)n2)c(OC)cc1N1CCC(N2CCN(C)CC2)CC1 [Compound J-018, (6-((5-Bromo-2-((5-ethyl-2-methoxy-4-(4-(4-methylpiperazin-1-yl)piperidin-1-yl)phenyl)amino)pyrimidin-4-yl)amino)-2-cyclopropylquinolin-5-yl)dimethylphosphine oxide]",1.9 nM,160 nM,7.3 nM,0.3 nM,178 nM,1500 nM
"CCc1ccc2c(P(C)(C)=O)c(Nc3nc(Nc4cc(C)c(N5CCC(N6CCN(C)CC6)CC5)cc4OC)ncc3Br)ccc2n1 [Compound J-028, (6-((5-Bromo-2-((2-methoxy-5-methyl-4-(4-(4-methylpiperazin-1-yl)piperidin-1-yl)phenyl)amino)pyrimidin-4-yl)amino)-2-ethylquinolin-5-yl)dimethylphosphine oxide]",20.8 nM,155 nM,19 nM,0.14 nM,116 nM,842 nM
"C#Cc1ccc2c(P(C)(C)=O)c(Nc3nc(Nc4cc(OC)c(N5CCC(N6CCN(C)CC6)CC5)cc4C)ncc3Br)ccc2n1 [Compound J-015, (6-((5-Bromo-2-((5-methoxy-2-methyl-4-(4-(4-methylpiperazin-1-yl)piperidin-1-yl)phenyl)amino)pyrimidin-4-yl)amino)-2-ethynylquinolin-5-yl)dimethylphosphine oxide]",15.8 nM,388 nM,12.1 nM,0.29 nM,12.1 nM,678 nM
"COc1cc(N2CCC(N3CCN(C)CC3)CC2)c(OC)cc1Nc1ncc(Br)c(Nc2ccc3nc(C4CC4)ccc3c2P(C)(C)=O)n1 [Compound J-020, (6-((5-Bromo-2-((2,5-dimethoxy-4-(4-(4-methylpiperazin-1-yl)piperidin-1-yl)phenyl)amino)pyrimidin-4-yl)amino)-2-cyclopropylquinolin-5-yl)dimethylphosphine oxide]",2.2 nM,144 nM,21 nM,0.72 nM,107 nM,983 nM
"COc1cc(Nc2ncc(Br)c(Nc3ccc4nc(C5CC5)ccc4c3P(C)(C)=O)n2)c(C#N)cc1N1CCC(N2CCN(C)CC2)CC1 [Compound J-025, 2-((5-Bromo-4-((2-cyclopropyl-5-(dimethylphosphineoxide)quinolin-6-yl)amino)pyrimidin-2-yl)amino)-4-methoxy-5-(4-(4-methylpiperazin-1-yl)piperidin-1-yl)benzonitrile]",,,2310 nM,43 nM,> 3000 nM,
"COc1cc(-c2ccc(N3CCN(C)CC3)cc2)c(C)cc1Nc1ncc(Br)c(Nc2ccc3nc(C4CC4)ccc3c2P(C)(C)=O)n1 [Compound J-040, (6-((5-Bromo-2-((5-methoxy-2-methyl-4′-(4-methylpiperazin-1-yl)-[1,1′-biphenyl]-4-yl)amino)pyrimidin-4-yl)amino)-2-cyclopropylquinolin-5-yl)dimethylphosphine oxide]",,,550 nM,6 nM,1160 nM,
"COc1cc(N2CCOCC2)c(C#N)cc1Nc1ncc(Br)c(Nc2ccc3nc(C4CC4)ccc3c2P(C)(C)=O)n1 [Compound J-002, 5-((5-Bromo-4-((2-cyclopropyl-5-(dimethylphosphineoxide)quinolin-6-yl)amino)pyrimidin-2-yl)amino)-4-methoxy-2-morpholinebenzonitrile]",,,62.8 nM,0.4 nM,720 nM,
"CCc1cc(N2CCC(N3CCN(C)CC3)CC2)c(OC)cc1Nc1ncc(Br)c(Nc2ccc3nc(C4CC4)ccc3c2P(C)(C)=O)n1 [Compound J-031, (6-((5-Bromo-2-((2-ethyl-5-methoxy-4-(4-(4-methylpiperazin-1-yl)piperidin-1-yl)phenyl)amino)pyrimidin-4-yl)amino)-2-cyclopropylquinolin-5-yl)dimethylphosphine oxide]",,,64 nM,0.5 nM,103 nM,
"COc1cc(Nc2ncc(Br)c(Nc3ccc4nc(C5CC5)ccc4c3P(C)(C)=O)n2)cc(C)c1N1CCOCC1 [Compound J-006, (6-((5-Bromo-2-((3-methoxy-5-methyl-4-morpholinylphenyl)amino)pyrimidin-4-yl)amino)-2-cyclopropylquinoline-5-yl)dimethylphosphine oxide]",,,714 nM,3.5 nM,437 nM,
